Series [1] deals with T1, Mu-type opioid receptor (Homo sapiens, UniProt P35372). Kind of series: Agonist activity at human mu opioid receptor expressed in HEK293 cells assessed as inhibition of forskolin-stimulated cAMP accumulation by fluorescence assay. It is filed as functional, cell-based. (In general: cAMP levels reflect the balance of adenylyl cyclase and phosphodiesterase activity.)
Series [2] has as its target T1, Mu-type opioid receptor. Briefly: Agonist activity at human mu opioid receptor expressed in HEK293 cells assessed as beta-arrestin recruitment by chemiluminescence assay. Type of series: cell-based. (In general: Recruitment of arrestin is a read-out of receptor activation apart from second messengers.)
The nature of series [3]: Cardiotoxicity in isolated rabbit left ventricular wedge model assessed as torsade de pointes score up to 30 uM. Type of series: toxicity, tissue-based, Oryctolagus cuniculus, Heart left ventricle.
Series [4] in a line: Cardiotoxicity in isolated rabbit left ventricular wedge model assessed as proarrhyhmic event. It is filed as toxicity, tissue-based, Oryctolagus cuniculus, Heart left ventricle.
Series [5] has as its system Cynomolgus monkey. Briefly: Cardiotoxicity in cynomolgus monkey assessed as QT interval. Type of series: toxicity, organism-based, Macaca fascicularis. The conditions noted are these: in vivo.
Series [6] relates to Cynomolgus monkey. Kind of series: Cardiotoxicity in cynomolgus monkey assessed as QTc interval. It is filed as toxicity, organism-based, Macaca fascicularis. The conditions noted are these: in vivo.
Series [7] has as its system Cynomolgus monkey. Kind of series: Cardiotoxicity in cynomolgus monkey assessed as PR interval. It is filed as toxicity, organism-based, Macaca fascicularis. The note with it: in vivo.
Series [8] relates to Cynomolgus monkey. Kind of series: Cardiotoxicity in cynomolgus monkey assessed as QRS duration. Type of series: toxicity, organism-based, Macaca fascicularis. The note with it: in vivo.
The nature of series [9]: Cardiotoxicity in isolated rabbit left ventricular wedge model assessed as increase in Tp-e interval at 1 uM. It is filed as toxicity, tissue-based, Oryctolagus cuniculus, Heart left ventricle.
A short description of series [10]: Cardiotoxicity in isolated rabbit left ventricular wedge model assessed as increase in QT interval at 0.3 uM. Type of series: toxicity, tissue-based, Oryctolagus cuniculus, Heart left ventricle.
Series [11] concerns the target Voltage-dependent L-type calcium channel subunit alpha-1C (Homo sapiens, UniProt Q13936). Kind of series: Inhibition of human Cav 1.2 ion channel expressed in HEK293 cells by whole-cell patch clamp technique. Type of series: cell-based. For orientation: The patch-clamp technique gives a direct electrical read-out from membranes.
Series [12] has as its target T2, Sodium channel protein type 5 subunit alpha (Homo sapiens, UniProt Q14524). Kind of series: Inhibition of human Nav 1.5 tonic ion channel expressed in HEK293 cells by whole-cell patch clamp technique. It is filed as cell-based.
In series [13] the target is T2, Sodium channel protein type 5 subunit alpha. Briefly: Inhibition of human Nav 1.5 phasic ion channel expressed in HEK293 cells by whole-cell patch clamp technique. Type of series: cell-based.
In series [14] the target is Voltage-gated inwardly rectifying potassium channel KCNH2 (Homo sapiens, UniProt Q12809). Briefly: Inhibition of human ERG channel expressed in HEK293 cells by whole-cell patch clamp technique. It is filed as cell-based.
Series [15] concerns the target Delta-type opioid receptor (Homo sapiens, UniProt P41143). Briefly: Agonist activity at human delta opioid receptor expressed in HEK293 cells assessed as inhibition of forskolin-stimulated cAMP accumulation by fluorescence assay. Type of series: functional, cell-based.
For series [16], the target named is Kappa-type opioid receptor (Homo sapiens, UniProt P41145). Kind of series: Agonist activity at human kappa opioid receptor expressed in HEK293 cells assessed as inhibition of forskolin-stimulated cAMP accumulation by fluorescence assay. Type of series: functional, cell-based.
Kappa-type opioid receptor, sequence (P41145 whole entry): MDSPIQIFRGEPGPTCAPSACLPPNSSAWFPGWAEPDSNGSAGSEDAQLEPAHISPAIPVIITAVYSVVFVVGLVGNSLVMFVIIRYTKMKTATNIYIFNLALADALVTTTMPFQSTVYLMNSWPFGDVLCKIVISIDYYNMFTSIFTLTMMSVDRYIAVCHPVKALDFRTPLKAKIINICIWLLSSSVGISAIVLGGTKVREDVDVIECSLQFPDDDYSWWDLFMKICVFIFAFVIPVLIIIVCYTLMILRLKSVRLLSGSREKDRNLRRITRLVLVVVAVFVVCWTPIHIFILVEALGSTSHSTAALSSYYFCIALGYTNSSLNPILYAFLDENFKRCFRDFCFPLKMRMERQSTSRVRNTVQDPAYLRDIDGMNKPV
Series [17] is described as follows: Cardiotoxicity in isolated rabbit left ventricular wedge model assessed as torsade de pointes score at 0.3 to 1 uM. Type of series: toxicity, tissue-based, Oryctolagus cuniculus, Heart left ventricle.
Series [18] is described as follows: Cardiotoxicity in isolated rabbit left ventricular wedge model assessed as increase in QT interval at 1 uM. It is filed as toxicity, tissue-based, Oryctolagus cuniculus, Heart left ventricle.
For series [19], the system named is HEK293. Briefly: Selectivity ratio of EC50 for human mu opioid receptor expressed in HEK293 cells over EC50 for human delta opioid receptor expressed in HEK293 cells. Type of series: cell-based.
In series [20] the test system is HEK293. Briefly: Selectivity ratio of EC50 for human mu opioid receptor expressed in HEK293 cells over EC50 for human kappa opioid receptor expressed in HEK293 cells. Type of series: cell-based.
Series [21] relates to Mus musculus. Kind of series: Toxicity in mouse fecal boli accumulation model assessed as fecal boli production at equianalgesic dose, sc after 4 hrs relative to morphine. The note with it: in vivo. Type of series: organism-based.
Series [22] relates to Mus musculus. Briefly: Toxicity in mouse glass bead model assessed as retention time of colonic motility at 3 mg/kg, sc. The conditions noted are these: in vivo. More on the design: dose 3 mg/kg, route subcutaneous. Type of series: organism-based, Colon.
For series [23], the system named is Mus musculus. Kind of series: Analgesic effect in mouse at 3 mg/kg, sc after 30 mins by hot plate assay. Type of series: functional. The note with it: route subcutaneous.
Series [24] relates to Mus musculus. Briefly: Analgesic effect in sc dosed mouse by hot plate assay. Type of series: functional.
Series [25] concerns Mus musculus. Kind of series: Analgesic effect in mouse at 6 mg/kg, sc after 30 mins by hot plate assay. It is filed as functional. The note with it: route subcutaneous.

This note sets out measurements from ChEMBL document CHEMBL2440083 (J Med Chem, 2013).

The structures appear in SMILES notation. Where only a bound is given, the exact number is not on record here.

T2 sequence (Q14524 whole entry): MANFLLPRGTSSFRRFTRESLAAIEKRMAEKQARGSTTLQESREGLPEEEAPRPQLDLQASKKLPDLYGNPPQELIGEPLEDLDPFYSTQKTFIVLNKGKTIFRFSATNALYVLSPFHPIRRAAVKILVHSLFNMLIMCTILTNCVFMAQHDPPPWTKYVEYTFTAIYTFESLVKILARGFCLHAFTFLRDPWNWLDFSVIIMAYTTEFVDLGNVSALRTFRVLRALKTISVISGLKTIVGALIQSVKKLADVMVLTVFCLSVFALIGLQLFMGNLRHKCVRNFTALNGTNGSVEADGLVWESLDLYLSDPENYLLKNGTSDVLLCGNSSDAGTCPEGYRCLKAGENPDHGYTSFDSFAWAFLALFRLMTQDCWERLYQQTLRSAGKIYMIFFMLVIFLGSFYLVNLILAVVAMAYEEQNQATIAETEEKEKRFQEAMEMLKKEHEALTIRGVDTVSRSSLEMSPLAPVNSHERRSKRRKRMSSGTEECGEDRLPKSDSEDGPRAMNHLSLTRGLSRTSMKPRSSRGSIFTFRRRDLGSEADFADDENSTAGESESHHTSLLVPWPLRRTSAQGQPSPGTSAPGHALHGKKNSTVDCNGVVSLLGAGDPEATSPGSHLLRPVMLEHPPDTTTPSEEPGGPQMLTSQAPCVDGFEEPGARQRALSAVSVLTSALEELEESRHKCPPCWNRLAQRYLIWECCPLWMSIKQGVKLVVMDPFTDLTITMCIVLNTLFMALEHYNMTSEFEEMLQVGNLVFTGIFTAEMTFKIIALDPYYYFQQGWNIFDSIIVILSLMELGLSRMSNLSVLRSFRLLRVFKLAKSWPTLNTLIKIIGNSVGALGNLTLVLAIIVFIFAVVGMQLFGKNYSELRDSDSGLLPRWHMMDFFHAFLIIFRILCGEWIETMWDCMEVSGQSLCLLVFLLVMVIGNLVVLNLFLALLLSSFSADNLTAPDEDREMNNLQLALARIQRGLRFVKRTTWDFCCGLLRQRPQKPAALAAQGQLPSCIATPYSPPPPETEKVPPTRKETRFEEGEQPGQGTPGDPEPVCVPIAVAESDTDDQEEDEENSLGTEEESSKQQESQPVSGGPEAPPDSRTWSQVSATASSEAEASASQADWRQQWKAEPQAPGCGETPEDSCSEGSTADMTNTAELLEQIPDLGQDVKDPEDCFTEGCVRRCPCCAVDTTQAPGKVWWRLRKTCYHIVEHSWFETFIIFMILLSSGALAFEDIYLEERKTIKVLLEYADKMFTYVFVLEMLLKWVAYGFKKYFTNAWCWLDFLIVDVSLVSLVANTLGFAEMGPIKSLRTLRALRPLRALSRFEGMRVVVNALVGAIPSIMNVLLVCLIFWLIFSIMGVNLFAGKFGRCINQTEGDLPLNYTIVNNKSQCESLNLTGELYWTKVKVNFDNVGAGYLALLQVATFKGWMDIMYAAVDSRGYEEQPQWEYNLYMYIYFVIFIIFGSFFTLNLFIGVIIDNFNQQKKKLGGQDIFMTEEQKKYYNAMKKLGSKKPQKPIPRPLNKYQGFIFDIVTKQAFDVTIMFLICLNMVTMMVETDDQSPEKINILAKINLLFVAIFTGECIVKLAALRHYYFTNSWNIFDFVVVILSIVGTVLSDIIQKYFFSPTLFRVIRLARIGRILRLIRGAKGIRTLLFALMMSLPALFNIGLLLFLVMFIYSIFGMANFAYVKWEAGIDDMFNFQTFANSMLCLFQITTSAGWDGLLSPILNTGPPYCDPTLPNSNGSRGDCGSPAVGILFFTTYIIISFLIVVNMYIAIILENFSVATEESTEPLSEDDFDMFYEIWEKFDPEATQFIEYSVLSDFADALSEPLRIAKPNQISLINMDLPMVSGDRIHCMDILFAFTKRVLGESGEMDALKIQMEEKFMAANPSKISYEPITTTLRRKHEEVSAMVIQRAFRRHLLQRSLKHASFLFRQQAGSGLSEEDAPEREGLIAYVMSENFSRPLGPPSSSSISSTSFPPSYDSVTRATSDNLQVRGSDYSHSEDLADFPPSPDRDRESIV
T1 sequence (P35372 whole entry): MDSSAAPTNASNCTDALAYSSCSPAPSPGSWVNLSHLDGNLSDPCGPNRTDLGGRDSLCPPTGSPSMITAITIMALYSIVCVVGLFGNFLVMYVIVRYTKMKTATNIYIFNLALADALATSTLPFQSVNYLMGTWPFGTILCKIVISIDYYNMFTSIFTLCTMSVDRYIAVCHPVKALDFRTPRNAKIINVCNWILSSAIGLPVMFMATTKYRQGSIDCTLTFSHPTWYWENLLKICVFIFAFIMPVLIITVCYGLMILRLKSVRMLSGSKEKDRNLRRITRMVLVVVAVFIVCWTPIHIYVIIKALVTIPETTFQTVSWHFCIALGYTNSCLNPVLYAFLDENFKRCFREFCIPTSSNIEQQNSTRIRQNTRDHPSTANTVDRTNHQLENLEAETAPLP
Voltage-dependent L-type calcium channel subunit alpha-1C, sequence (Q13936 whole entry): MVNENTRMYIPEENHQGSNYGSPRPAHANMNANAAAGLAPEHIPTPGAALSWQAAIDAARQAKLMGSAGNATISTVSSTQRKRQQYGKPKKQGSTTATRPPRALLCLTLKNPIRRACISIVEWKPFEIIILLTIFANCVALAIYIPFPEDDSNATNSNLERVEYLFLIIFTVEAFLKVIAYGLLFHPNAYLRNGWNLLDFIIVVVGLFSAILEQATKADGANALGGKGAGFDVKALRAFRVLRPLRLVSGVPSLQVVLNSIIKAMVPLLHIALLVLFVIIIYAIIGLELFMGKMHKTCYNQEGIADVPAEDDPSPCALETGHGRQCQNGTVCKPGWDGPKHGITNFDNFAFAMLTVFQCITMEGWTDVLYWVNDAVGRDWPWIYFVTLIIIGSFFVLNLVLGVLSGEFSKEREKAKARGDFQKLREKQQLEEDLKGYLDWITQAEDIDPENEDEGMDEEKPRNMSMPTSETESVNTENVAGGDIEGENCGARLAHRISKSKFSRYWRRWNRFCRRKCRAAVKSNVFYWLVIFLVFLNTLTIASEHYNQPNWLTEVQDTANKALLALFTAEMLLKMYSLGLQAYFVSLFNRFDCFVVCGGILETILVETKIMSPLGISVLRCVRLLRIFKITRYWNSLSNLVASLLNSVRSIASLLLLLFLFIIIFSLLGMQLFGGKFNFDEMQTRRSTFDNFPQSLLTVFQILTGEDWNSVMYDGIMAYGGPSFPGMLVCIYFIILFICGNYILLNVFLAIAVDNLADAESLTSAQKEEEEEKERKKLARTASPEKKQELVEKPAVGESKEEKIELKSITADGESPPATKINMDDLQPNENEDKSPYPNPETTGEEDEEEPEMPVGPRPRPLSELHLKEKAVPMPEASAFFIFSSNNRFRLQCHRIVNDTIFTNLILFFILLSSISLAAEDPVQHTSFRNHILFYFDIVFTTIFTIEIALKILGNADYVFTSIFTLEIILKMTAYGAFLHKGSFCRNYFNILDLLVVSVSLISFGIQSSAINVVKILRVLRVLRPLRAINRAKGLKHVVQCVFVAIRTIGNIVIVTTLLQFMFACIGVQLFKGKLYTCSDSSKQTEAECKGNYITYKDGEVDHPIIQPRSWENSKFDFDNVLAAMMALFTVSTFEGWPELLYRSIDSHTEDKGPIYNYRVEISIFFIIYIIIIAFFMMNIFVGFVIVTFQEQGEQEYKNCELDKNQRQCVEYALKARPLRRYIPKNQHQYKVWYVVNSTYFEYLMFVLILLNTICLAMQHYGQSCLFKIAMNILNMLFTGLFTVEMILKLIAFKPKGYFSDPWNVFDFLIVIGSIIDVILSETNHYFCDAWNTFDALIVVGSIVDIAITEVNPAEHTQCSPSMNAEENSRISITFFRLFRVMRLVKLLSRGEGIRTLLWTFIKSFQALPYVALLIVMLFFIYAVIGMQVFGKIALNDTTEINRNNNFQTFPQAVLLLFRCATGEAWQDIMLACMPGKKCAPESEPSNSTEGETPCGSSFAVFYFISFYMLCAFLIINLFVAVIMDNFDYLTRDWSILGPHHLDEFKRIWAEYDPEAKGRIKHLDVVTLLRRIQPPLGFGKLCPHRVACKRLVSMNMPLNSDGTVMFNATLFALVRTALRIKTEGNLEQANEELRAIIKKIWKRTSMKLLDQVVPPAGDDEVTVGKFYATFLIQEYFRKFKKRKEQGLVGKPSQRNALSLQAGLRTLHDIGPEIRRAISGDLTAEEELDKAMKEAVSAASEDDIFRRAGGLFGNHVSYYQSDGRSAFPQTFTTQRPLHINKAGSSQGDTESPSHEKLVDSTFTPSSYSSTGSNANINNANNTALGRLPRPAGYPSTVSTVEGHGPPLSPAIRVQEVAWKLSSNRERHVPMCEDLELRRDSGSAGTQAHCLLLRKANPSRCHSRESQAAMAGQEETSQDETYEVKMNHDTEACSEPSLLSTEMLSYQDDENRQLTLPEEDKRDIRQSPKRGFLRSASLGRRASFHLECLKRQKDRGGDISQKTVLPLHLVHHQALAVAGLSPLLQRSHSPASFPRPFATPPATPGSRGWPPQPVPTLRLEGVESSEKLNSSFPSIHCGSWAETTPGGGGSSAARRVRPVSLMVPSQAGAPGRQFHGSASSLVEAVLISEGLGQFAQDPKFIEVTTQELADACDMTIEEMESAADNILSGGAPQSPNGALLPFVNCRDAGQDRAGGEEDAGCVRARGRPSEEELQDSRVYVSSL

With `Cc1ccc(C2(CCNCc3ccccc3O)CCOCC2)cc1`, the EC50 (in general, the concentration at which the effect is half-maximal) in series [1] is 10000 nM.
`c1ccc([C@]2(CCNCC3CCCC3)CCOC3(CCCC3)C2)nc1`: the EC50 in [1] is 31.6 nM.
The same measure, in the same setting: the figure for `CC(C)(NCC[C@@]1(c2ccc(F)cc2)CCOC2(CCCC2)C1)c1ccccc1` is 3160 nM; for `Clc1ccccc1CNCC[C@@]1(c2ccccn2)CCOC2(CCCC2)C1` it is 10 nM.
Regarding `Fc1ccc(C2(CCNCc3ccccc3)CCOC3(CCCC3)C2)cc1` (racemic), the figures for the concentration for a half-maximal effect (EC50) in series [2] and in series [1] were 631 nM and 79.4 nM, respectively.
Regarding `c1ccc([C@]2(CCNCc3ccncn3)CCOC3(CCCC3)C2)nc1`, the EC50 in series [2] is 2000 nM; in series [1], 794 nM.
For `Cc1cc(CNCC[C@@]2(c3ccccn3)CCOC3(CCCC3)C2)sc1C` the same measures were 501 nM and 5.01 nM.
As to `Cc1ccsc1CNCC[C@@]1(c2ccccn2)CCOC2(CCCC2)C1`, in series [1], the EC50 is 6.31 nM.
As to `CC[C@]1(C)CC(CCNCc2ccccc2O)(c2ccc(F)cc2)CCO1` (stereo partly drawn), the values for the EC50 in [2] and in series [1] were 1580 nM and 39.8 nM, respectively.
For `c1ccc(CNCC[C@]2(c3ccccn3)CCOC3(CCCC3)C2)cc1`, the results for the concentration for a half-maximal effect (EC50) in series [2] and in series [1] were 15800 nM and 631 nM, respectively.
For `Cc1ccc(CNCC[C@@]2(c3ccccn3)CCOC3(CCCC3)C2)o1`, in that order: 200 nM and 50.1 nM.
Take `Cc1cc(CNCC[C@@]2(c3ccccn3)CCOC3(CCCC3)C2)oc1C`: the EC50 is 316 nM in series [2] and 31.6 nM in series [1].
For `Fc1ccc([C@]2(CCNCc3ccccc3)CCOC3(CCCC3)C2)cc1` the same measures were 398 nM and 31.6 nM.
For the compound `COc1ccsc1CNCC[C@@]1(c2ccccn2)CCOC2(CCCC2)C1` [OLICERIDINE], the Activity result in [3], in series [4], in series [5], in series [6], in series [7] and in series [8] was “Non-toxic” in each case. Besides, the results for the Activity in series [9] and in series [10] were 7% and 3%, respectively. For the same compound, the IC50 (in general, the concentration that gives 50% inhibition) in series [11] worked out at 36000 nM; in series [12], 16500 nM; in series [13], 4700 nM; in series [14], 6200 nM. In addition, the EC50 in series [15] turned out to be 2800 nM; in series [16] it was 1400 nM.
As for `Fc1ccc(C2(CCNCc3ccccc3)CCOC3(CCCCC3)C2)cc1` (stereo not drawn), the values for the EC50 in series [2] and in [1] were 7940 nM and 398 nM, respectively.
Take `Fc1ccc([C@@]2(CCNCc3ccccc3)CCOC3(CCCC3)C2)cc1`: the figures for the EC50 in [2] and in [1] were 7940 nM and 501 nM, respectively.
In the case of `c1ccc([C@]2(CCNCc3cnccn3)CCOC3(CCCC3)C2)nc1`, the EC50 in series [1] was 631 nM.
With `c1ccc(CNCC[C@@]2(c3ccccn3)CCOC3(CCCC3)C2)cc1`, the EC50 in [2] was 158 nM; in [1], 12.6 nM.
Turning to `c1ccc([C@]2(CCNCc3cccs3)CCOC3(CCCC3)C2)nc1`, the Activity entry is recorded as “Toxic” in [17], 40% in series [18] and 65% in series [9]. For the same compound, the half-inhibitory concentration (IC50) in [11] is > 100000 nM; in series [12] it was 20000 nM; in series [13], 9000 nM; in series [14], 2300 nM. In addition, the Ratio EC50 in [19] worked out at 56; in series [20], 71. Besides, the EC50 in [15] was 750 nM; in series [16] it was 900 nM; in series [2], 251 nM; in series [1] it was 15.8 nM. Further, in [21], the “fold change (FC)” value worked out at 2. The Retention_time in series [22] was 65 min. Moreover, the MPE in series [23] was determined as 79%. The 50% effective dose (ED50) – broadly, the dose that gives a 50% effect, or the effect in half of the subjects – in series [24] stood at 1.1 mg/kg.
As to `Clc1cccc(CNCC[C@@]2(c3ccccn3)CCOC3(CCCC3)C2)c1`, the EC50 in series [2] was 50.1 nM; in series [1], 2.51 nM.
As to `CC1(C)CC(CCNCc2ccccc2)(c2ccc(F)cc2)CCO1` (stereo not drawn), the EC50 in [1] was 1580 nM.
For `CCC1(CC)CC(CCNCc2ccccc2)(c2ccc(F)cc2)CCO1` (stereo not drawn), the values for the EC50 in [2] and in series [1] were 6310 nM and 251 nM, respectively.
Turning to `C[C@H](NCC[C@@]1(c2ccc(F)cc2)CCOC2(CCCC2)C1)c1ccccc1`, in series [1], the EC50 was 501 nM.
For `Cc1cc(C)c(CNCC[C@@]2(c3ccccn3)CCOC3(CCCC3)C2)s1`, the results for the EC50 in [2] and in [1] were 631 nM and 25.1 nM, respectively.
For `c1ccc([C@]2(CCNCc3ccc4ccccc4c3)CCOC3(CCCC3)C2)nc1` the same measures were 20000 nM and 158 nM.
With `c1ccc(CNCC[C@@]2(c3ccccn3)CCOC3(CCCC3)C2)nc1`, the EC50 in [1] was 158 nM.
On to `c1ccc([C@]2(CCNCc3ccsc3)CCOC3(CCCC3)C2)nc1`, for which the values for the EC50 in series [2] and in series [1] were 63.1 nM and 12.6 nM, respectively.
For `CC[C@]1(C)CC(CCNCc2ccccc2O)(c2ccc(C)cc2)CCO1` (stereo partly drawn), in that order: 2000 nM and 501 nM.
For `Cc1ccc(CNCC[C@@]2(c3ccccn3)CCOC3(CCCC3)C2)s1`, the EC50 in [1] was 15.8 nM.
Still for that read-out and setting: the figure for `c1ccc([C@]2(CCNCc3ccncc3)CCOC3(CCCC3)C2)nc1` is 1260 nM; for `C[C@@H](NCC[C@@]1(c2ccc(F)cc2)CCOC2(CCCC2)C1)c1ccccc1` it is 1000 nM; for `c1ccc([C@]2(CCNCc3cccnc3)CCOC3(CCCC3)C2)nc1` it is 200 nM.
In turn, `CN1CC[C@]23c4c5ccc(O)c4O[C@H]2[C@@H](O)C=C[C@H]3[C@H]1C5` [MORPHINE] had an MPE in [25] of 69%.
Turning to `c1ccc(CNCCC2(c3ccccn3)CCOC3(CCCC3)C2)cc1` (racemic), the EC50 in [2] was 200 nM; in series [1], 50.1 nM.
With `Cc1csc(CNCC[C@@]2(c3ccccn3)CCOC3(CCCC3)C2)c1`, the EC50 in series [2] is 398 nM; in series [1] it was 5.01 nM.
